Assays:
[1] = tested on: Human Umbilical Vein Endothelial Cells (HUVEC); assay: HUVEC proliferation (SRB assay); type: cell-based; conditions: for IC50: Homo sapiens, HUVEC, SRB assay; for potency relative to 2-ME2, HUVEC proliferation: in words
Description: FIG. 2 illustrates the effects of compounds on Human Umbilical Vein Endothelial Cells (HUVEC) proliferation. The SRB assay was used to construct the dose response curves of the agents in HUVEC cells. n=3±SD;
Two in vitro assays were used to detect the potential for antiangiogenic activity of the analogs. One assay tested the ability of the analogs to inhibit the cellular proliferation of endothelial cells as shown below (Table 4). The ability of the analogs to inhibit the proliferation of endothelial cells was tested and compared to the effects of 2-ME2. Drugs that have antiangiogenic activity inhibit the proliferation of endothelial cells.

[2] = tested on: Human Umbilical Vein Endothelial Cells (HUVEC); assay: HUVEC invasion, Matrigel invasion chambers; type: cell-based; conditions: for IC50: Homo sapiens, HUVEC, Matrigel, 24 hours
Description: FIG. 3 illustrates the effects of compounds on Human Umbilical Vein Endothelial Cells (HUVEC) cell invasion. Becton-Dickinson (BD) Biocoat® Matrigel® invasion chambers were used to construct dose response curves of the compounds for invasion of HUVECs. n=3±SD;
A second assay was also used to evaluate the analogs for potential antiangiogenic activity. The complex process of endothelial cell invasion and migration are key events during angiogenesis. The ability of compounds to inhibit the invasion and migration of endothelial cells through a biological membrane matrix was evaluated. Specifically, the ability of the 2-ME2 analogs, 15-dehydro-2-ME2, 14-dehydro-2-ME2 and 2-ME2-15α,16α to inhibit the invasion and migration of human umbilical vein endothelial cells (HUVEC) through Matrigel® basement membrane material and a PET membrane with 8 μm pores was evaluated. HUVECs were obtained from BioWhittaker and were used during passages of 2 to 6. BD Biocoat® Matrigel® invasion chambers were used for the assays. These modified Boyden chambers have a PET membrane with 8 μm pores that have been coated with Matrigel®. The membrane separates the upper chamber from the lower chamber. HUVECs were plated into the top chamber in media containing 0.1% bovine serum albumin with either a test compound or vehicle and allowed to invade and migrate through pores for 24 hours. The media in the lower chamber contained the chemoattractant, 10% fetal bovine, serum. Following the incubation period the cells on the top of the membrane were removed with a cotton swab and the cells that had migrated through the pores to the lower surface of the membrane were stained with hematoxylin and eosin and counted microscopically. Experiments were conducted in duplicate and the numbers of cells that migrated were counted in 10 microscope fields per transwell chamber. The data are expressed as percent of vehicle control invasion. Dose response curves were generated and are shown in FIG. 3 and the IC50s for inhibition of HUVEC invasion were determined and are presented above in Table 4. All of the 2-ME2 analogs inhibited HUVEC invasion.

[3] = tested on: HeLa cells; assay: SRB assay, inhibition of proliferation; type: cell-based; conditions: Homo sapiens, 48 hours, n=3 mean±SD
Protocol: (§1) The 4 analogs of 2-ME2 set forth in Table 1 were tested for antiproliferative activity against 6 human tumor cell lines. The SK-OV-3 cell line was derived from ovarian carcinoma, the MDA-MB-435 and NCI/ADR from breast adenocarcinoma, PC3 and DU 145 from prostate carcinoma and HeLa from cervical carcinoma. The SK-OV-3, HeLa, PC3, and DU 145 and cell lines were obtained from the American Type Culture Collection, 10801 University Blvd., Manassas, Va. 20110-2209. The MDA-MB-435 cell line was obtained from the Lombardi Cancer Center of Georgetown University School of Medicine and the NCI/ADR cell line was obtained from the National Cancer Institute, Fairview Center, Suite 204, 1003 West 7th Street, Frederick, Md. 21701-8531.
(§2) Cells were plated into 96 well plates and allowed to grow and attach for 18-24 hours and then the drugs or vehicle controls were added to the wells. Each data point represents the mean of three experiments, each of which consisted of three replicates within an experiment. The cells were incubated with the drugs for 48 hours and then the cellular protein was fixed and quantified using the sulforhodamine B (SRB) assay. The absorbance of the dye is linear with respect to both cell protein and cell number (Skehan, P.; Storeng, R.; Scudiero, D., Monks; A., McMahon, J.; Vistica, D., Warren, J. T.; Bokesch, H., Kenney, S.; and Boyd, M. R., “New colorimetric cytotoxicity assay for anticancer-drug screening”, J. Natl. Cancer Inst, 82, 1107-1112 (1990)). The effects of the drugs were compared to vehicle controls and the data plotted as percent of control vs. log of drug concentration.
(§3) The IC50 is defined as the drug concentration required to inhibit cell proliferation 50% and is calculated from the linear portion of the log concentration response curve.
(§4) The IC50 values for inhibition of proliferation were calculated from the log dose response curve (n=3, mean±SD).

[4] = tested on: SK-OV-3 cells; assay: SRB assay, inhibition of proliferation; type: cell-based; conditions: Homo sapiens; SK-OV-3, 48 hours, n=3 mean±SD
Protocol: as §1, §2, §3, §4

[5] = tested on: PC3 cells; assay: SRB assay, inhibition of proliferation; type: cell-based; conditions: Homo sapiens, PC-3; PC3, 48 hours, n=3 mean±SD
Protocol: as §1, §2, §3, §4

[6] = tested on: NCI/ADR cells; assay: SRB assay, inhibition of proliferation, multidrug resistant line; type: cell-based, human; conditions: for IC50: Homo sapiens, NCI/ADR-RES, NCI/ADR multidrug resistant, 48 hours, n=3 mean±SD; for NCI-ADR/MDA-MB-435 resistance factor: IC50 in NCI/ADR divided by IC50 in MDA-MB-435
Description: as §1, with “The” for “The 4 analogs of 2-ME2 set forth in Table 1 were tested for antiproliferative activity against 6 human tumor cell lines. The”
as §2, §3, §4
The effects of the analogs on a multi-drug resistant cell line were also studied. The NCI/ADR cell line is resistant to many chemotherapeutic agents by virtue of its high expression of the drug efflux pump P-glycoprotein. The NCI/ADR cell line was obtained from the National Cancer Institute, Fairview Center, Suite 204, 1003 West 7th Street, Frederick, Md. 21701-8531.
The IC50 values for inhibition of proliferation were calculated from the dose-response curves. The values represent the mean of 3 experiments ±SD. Resistance factors were calculated by dividing the IC50 of the resistant cell line, NCI/ADR, by the IC50 in a drug sensitive cell line, MDA-MB-435.

[7] = tested on: MDA-MB-435 cells; assay: SRB assay, inhibition of proliferation; type: cell-based, human; conditions: for IC50: Homo sapiens, MDA-MB-435, 48 hours, n=3 mean±SD
Protocol: as §1, §2, §3, §4

[8] = tested on: DU 145 cells; assay: SRB assay, inhibition of proliferation; type: cell-based, human; conditions: for IC50: Homo sapiens, DU 145, 48 hours, n=3 mean±SD; for potency relative to 2-ME2: DU 145 cell line
Protocol: as §1, §2, §3, §4

[9] = tested on: MDA-MB-435 breast cancer xenograft; assay: MDA-MB-435 breast cancer xenograft model; type: in vivo, mice; conditions: for tumor growth delay: intraperitoneally daily for 30 days, time for median to reach tumor burden of 1500 mg vs control; for antitumor effect compared with 2-ME2: tumor burden versus time
Protocol: FIG. 4 illustrates the effects of compounds in an MDA-MB-435 breast cancer xenograft model. The data are the means of the groups ±SEM. Statistical significance (P<0.05) is indicated by an asterisk;
The analogs were tested for antitumor activity using an MDA-MB-435 breast cancer xenograft model. Tumor fragments of MDA-MB-435 (30 mg) were implanted subcutaneously into female athymic NCr-nu mice (SWF-1) weighing approximately 24 g. The tumor fragments were harvested from nude mice hosts. Animal weight and tumor dimensions were measured twice weekly with calipers and tumor weights estimated using 2-dimensional measurements of length and width and the formula [1×(w)^2]/2. When the tumors reached an approximate size equivalent to 175 mg (13 days after implantation) the mice were randomized to treatment or control groups and treatments were begun. The compounds were administered intraperitoneally daily for 30 days on the basis of individual animal body weights. Treatment groups contained 10 mice and the vehicle treated control group consisted of 20 mice. The mean tumor burdens were plotted for each treatment group and compared to controls. The means of the tumor burden data were analyzed for differences using a one-sided Student's t-test, with a P<0.05 considered to be significant difference. Tumor growth delay, the difference between the time for the median of each group (treatment and control) to reach a tumor burden of 1500 mg was calculated.

[10] = tested on: 6 human tumor cell lines; assay: SRB antiproliferative assay, panel of tumor cell lines; type: cell-based; conditions: for potency compared with 2-ME2, tumor cell lines: in words, 15-dehydro-2-ME2: MDA-MB-435, NCI/ADR, PC3, HeLa and SK-OV-3
Protocol: as §1, §2, §3

| SMILES | IC50 [1] [nM] | IC50 [2] [nM] | IC50 [3] [nM] | IC50 [4] [nM] | IC50 [5] [nM] | IC50 [6] [nM] | NCI-ADR/MDA-MB-435 resistance factor [6] | IC50 [7] [nM] | IC50 [8] [nM] | potency relative to 2-ME2, HUVEC proliferation [1] | tumor growth delay [9] [days] | antitumor effect compared with 2-ME2 [9] | potency relative to 2-ME2 in inhibiting HUVEC invasion [2] | potency compared with 2-ME2, tumor cell lines [10] | potency compared with 2-ME2 ([7]; MDA-MB-435 cell line, in words) | potency relative to 2-ME2 ([10]; 5 of the 6 cell lines tested) | potency relative to 2-ME2 [8] | days with statistically significant differences between control and treated tumors ([9]; one-sided Student's t-test, P<0.05) | NCI-ADR/MDA-MB-435 resistance factor ([6]; listed as vinblastine) |
| --- | --- | --- | --- | --- | --- | --- | --- | --- | --- | --- | --- | --- | --- | --- | --- | --- | --- | --- | --- |
| COc1cc2c(cc1O)CCC1C2CC[C@@]2(C)C1CC[C@@H]2O (stereo partly drawn) [2-ME2, 2-Methoxyestradiol, reference compound] | 700 ± 110 | 1990 ± 390 | 450 ± 40 | 1790 ± 240 | 2220 ± 150 | 380 ± 10 | 0.28 | 1380 ± 100 | 4260 ± 950 | – | – | – | – | – | – | – | – | – | – |
| COc1cc2c(cc1O)CCC1C2CC[C@@]2(C)C1[C@H]1OC(C)(C)O[C@H]1[C@@H]2O (stereo partly drawn) [2-ME2-15α, 16α, 2-Methoxy-3,15α,16α,17β-tetrahydroxyestra-1,3,5(10)-triene 15,16-acetonide] | 11900 ± 2170 | 16000 ± 1980 | 2980 ± 240 | 5160 ± 990 | 5130 ± 1530 | 4210 ± 600 | 1.30 | 3240 ± 350 | 6780 ± 620 | less potent | 11.3 | superior to 2-ME2 | less potent | generally less potent than 2-ME2 | – | – | – | – | – |
| COc1cc2c(cc1O)CC=C1[C@@H]2CC[C@]2(C)[C@@H](O)CC[C@@H]12 [7-dehydro-2-ME2, 2-Methoxyestra-1,3,5(10), 7-tetraen-3,17β-diol] | 4390 ± 370 | – | – | 4490 ± 180 | – | 2540 ± 440 | 1.29 | 1970 ± 400 | – | less potent | – | – | – | generally less potent than 2-ME2 | almost equipotent | – | – | – | – |
| COc1cc2c(cc1O)CC[C@H]1C3=CC[C@H](O)[C@@]3(C)CC[C@H]21 [14-dehydro-2-ME2, 2-Methoxyestra-1,3,5(10), 14-tetraen-3,17β-diol] | 49 | 300 ± 20 | 50 ± 20 | 150 ± 70 | 350 ± 90 | 56 ± 10 | 1.0 | 56 ± 2 | 1580 ± 810 | more potent than 2-ME2 | 10.0 | superior to 2-ME2 | more than 6 times | – | – | 6-24 fold | 2.7 fold | – | – |
| COc1cc2c(cc1O)CC[C@@H]1[C@@H]2CC[C@]2(C)[C@@H](O)C=C[C@@H]12 [15-dehydro-2-ME2, 2-Methoxyestra-1,3,5(10), 15-tetraen-3,17β-diol] | 720 ± 20 | 2070 ± 80 | 430 ± 80 | 1370 ± 260 | 1820 ± 980 | 490 ± 60 | 0.57 | 860 ± 110 | 1250 ± 320 | equipotent with the parental compound | 7.5 | superior to 2-ME2 | equipotent with 2-ME2 | approximately equal in potency to 2-ME2 | – | – | over three times more potent | days 16-26 and day 36 | – |
| CC(=O)O[C@H]1C(=O)[C@@]2(C)[C@H]([C@H](OC(=O)c3ccccc3)[C@]3(O)C[C@H](OC(=O)[C@H](O)[C@@H](NC(=O)c4ccccc4)c4ccccc4)C(C)=C1C3(C)C)[C@]1(OC(C)=O)CO[C@@H]1C[C@@H]2O [Taxol ®, reference compound] | – | – | – | – | – | 4460 ± 610 | 2218.91 | 2.01 ± 0.3 | – | – | – | – | – | – | – | – | – | – | – |
| CC[C@]1(O)C[C@@H]2CN(CCc3c([nH]c4ccccc34)[C@@](C(=O)OC)(c3cc4c(cc3OC)N(C)[C@H]3[C@@](O)(C(=O)OC)[C@H](OC(C)=O)[C@]5(CC)C=CCN6CC[C@]43[C@@H]65)C2)C1 [Vinblastine, reference compound] | – | – | – | – | – | 430 ± 70 | 139.61 | 3.08 ± 0.09 | – | – | – | – | – | – | – | – | – | – | 140 |
